According to US10342846B2, “Nanoparticle drug delivery systems” (University of Notre Dame du Lac, priority 2013, dated 2019):
“Also recorded” adds a separate entry of the source. Where two headings read alike, the source gives them in different places.

Legend:
[1] = MM xenograft mouse model, body weight / systemic toxicity; format: in vivo, C.B.-17 SCID mice; conditions: 1 mg/kg bortezomib equivalent, intravenous, days 1, 4, 8, and 11
Protocol: MM Xenograft Mouse Model. C.B.-17 SCID mice (Harlan Laboratories) were irradiated with 150 rad and were inoculated subcutaneously with 5×10^6 NCI-H929 cells. When tumors were palpable, mice were distributed into 6 groups of 5 mice and were treated intravenously with the various bortezomib pro-drugs, free bortezomib, or vehicle (PBS), on days 1, 4, 8, and 11. Animals were monitored for body weight and tumor volume.
Liposomal Pro-Drugs Inhibit Tumor Growth with Reduced Systemic Toxicity In Vivo. […] Thus, in vivo studies were performed on C.B-17 SCID mice injected with NCI-H929 tumors to evaluate the efficacy of the liposomal pro-drugs in inhibiting tumor growth and limiting toxicity. The mice were divided into six groups (control, free bortezomib, and one group for each pro-drug) of five mice. The mice were monitored for body weight and tumor volume every other day. When the tumors became palpable, intravenous injections of the respective bortezomib formulations at a dose of 1 mg/kg bortezomib equivalent nanoparticles were performed on days 1, 4, 8, and 11.

[2] = molecular target: extracellular HER2 domain (Homo sapiens, UniProt P04626); conditions: reported by Berezov et al., recombinant soluble HER2 protein; cited from earlier work
[3] = test system: MCF7 cells (very low HER2 expression); assay: Cellular binding assay, flow cytometry (MCF7); conditions: fluorescein labeled peptide, negative control cell line
Protocol: (§1) HER2 or VLA-4 Expression Analysis and Cell-Based Peptide Binding Assays. For antibody binding assays, cells were incubated with the primary antibody in binding buffer (1.5% BSA in PBS pH 7.4) on ice for 1 hour and were washed twice. Fluorescein conjugated secondary antibody was added for 1 hour on ice, samples were washed, and analyzed on Guava easyCyte 8HT flow cytometer (Millipore). For cell-based peptide binding assays, cells were incubated with increasing concentrations of fluorescein-conjugated peptides for 2 hours on ice. Samples were washed twice and analyzed on Guava easyCyte 8HT flow cytometer.

[4] = test system: VLA-4-overexpressing multiple myeloma cells; assay: In vitro nanoparticle uptake, result stated jointly for the myeloma lines; format: cell-based; conditions: competition experiment, NCI-H929 and MM.1S
Protocol: In Vitro Liposome Uptake and Binding Assays. 1×10^5 cells/well were plated 24 hours prior to each experiment in a 24 well dish. Liposomes were added at 100 μM phospholipid concentration and incubated for 3 hours at 37° C. 0.2% fluorescein PE was added as a fluorescent marker to each liposomal formulation. For adherent cells, after incubation, cells were washed 3 times with PBS, trypsinized, and analyzed via flow cytometry. For suspension cells, after incubation, cells were washed 3 times with PBS and analyzed via flow cytometry. For binding assays, adherent cells were scraped from the surface of a confluent dish, placed in growth media, and incubated on ice for 30 minutes. Liposomes were added at variable concentrations and incubated for 2 hours on ice. After incubation, cells were washed 3 times with PBS and analyzed via flow cytometry.
In Vitro Nanoparticle Uptake Assays. 1×10^5 cells/well were plated 24 hours prior to each experiment in a 24 well dish. Nanoparticles were added at 100 μM phospholipid concentration and incubated for 3 hours at 37° C. […] For suspension cells, after incubation, cells were washed 3 times with PBS and analyzed via flow cytometry. For adherent cells, after incubation, cells were washed 3 times with PBS, trypsinized, and analyzed via flow cytometry.

[5] = test system: MM.1S myeloma cells (VLA-4 expressing); assay: Cell-based peptide binding assay (MM.1S); conditions: fluorescein labeled peptide, MM.1S cells, flow cytometry; read-out: apparent Kd
Protocol: (§2) Receptor Expression Analysis and Cell-Based Peptide Binding Assays. For VLA-4 expression assays, cells were incubated with anti-CD49d (phycoerythrin) or anti-CD29 (fluorescein) antibodies (BD Biosciences, San Jose, Calif.) in binding buffer (1.5% BSA in PBS pH 7.4) on ice for 1 hour and were washed twice. For HER2 expression assays, cells were incubated with primary antibody in binding buffer on ice for 1 hour and washed twice. Fluorescein conjugated secondary antibody was added for 1 hour on ice, samples were washed, and analyzed on Guava easyCyte 8HT flow cytometer (Millipore). Isotype matched antibodies were used as negative controls. For cell-based peptide binding assays, cells were incubated with increasing concentrations of fluorescein-conjugated peptides for 2 hours on ice. Samples were washed twice and analyzed on Guava easyCyte 8HT flow cytometer.

[6] = test system: NCI-H929 myeloma cells (VLA-4 expressing); assay: Cell-based peptide binding assay (NCI-H929); conditions: fluorescein labeled peptide, flow cytometry, read-out: apparent Kd
Protocol: as §1
as §2, with “For cell-based peptide binding assays, cells were incubated with increasing concentrations of fluorescein-conjugated peptides for 2 hours on ice.” left out

CC(C)C[C@H](NC(=O)[C@H](Cc1ccccc1)NC(=O)c1cnccn1)B(O)O [free bortezomib, bortezomib]
systemic toxicity [1]: moribundity on day 7; also recorded: moribundity by day 7

YCDGFYACYMDV [HER2-pep]
Kd [2]: 150 nM
binding to MCF7 cells [3]: minimal binding

YCDPC [VLA4-pep]
inhibition of uptake of VLA-4-targeted liposomes by excess free peptide ([4]; LPVLA4pep(K3)): efficient inhibition of uptake
inhibition of uptake of VLA-4-targeted micelles by free peptide ([4]; micelles with VLA4pep(K3)): significant inhibition
Kd [5]: 250 nM
Kd ([6]; listed as VLA4pep): 250 nM
Kd [6]: ~250 nM
